Data published in patent US10533010B2, “Substituted indole Mcl-1 inhibitors” (Vanderbilt University, priority 2014, dated 2020).
Read-outs that look alike come from different tables or passages of the source.

Target: recombinant Mcl-1 (residues 172-327) (Homo sapiens (Human), UniProt Q07820)
Assay: Fluorescence polarization anisotropy competition assay (FITC-Bak or FITC-Bim BH3 peptide) with Mcl-1
Format: binding
[1] = Table 2, Ki bins given in nM, FITC-Bak or FITC-Bim peptide competition, Ki converted from IC50, read-out: Ki for Inhibition of Mcl-1
[2] = Table 2, Ki bins given in μM, FITC-Bak or FITC-Bim peptide competition, Ki converted from IC50, read-out: Ki for Inhibition of Mcl-1

Sequence of recombinant Mcl-1 (residues 172-327) (Q07820 172-327): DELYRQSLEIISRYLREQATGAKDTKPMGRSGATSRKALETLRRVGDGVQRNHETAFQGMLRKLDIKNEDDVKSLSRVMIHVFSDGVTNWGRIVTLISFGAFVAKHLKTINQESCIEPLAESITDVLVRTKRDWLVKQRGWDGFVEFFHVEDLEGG

SMILES | Ki [1] [nM] | further results
Cc1nn(C)c(C)c1-c1cccc2c(CCCOc3cccc4ccccc34)c(C(=O)Nc3cncc(C(=O)O)c3)[nH]c12 [I-194, 5-(3-(3-(naphthalen-1-yloxy)propyl)-7-(1,3,5-trimethyl-1H-pyrazol-4-yl)-1H-indole-2-carboxamido)nicotinic acid] | 51 to 100 | –
Cc1cc(OCCCc2c3n(c4c(-c5c(C)nn(C)c5C)cccc24)CCCN(Cc2cc(C(=O)O)cc([N+](=O)[O-])c2)C3=O)cc(C)c1Cl [I-86, 3-((11-(3-(4-chloro-3,5-dimethylphenoxy)propyl)-1-oxo-7-(1,3,5-trimethyl-1H-pyrazol-4-yl)-4,5-dihydro-1H-[1,4]diazepino[1,2-a]indol-2(3H)-yl)methyl)-5-nitrobenzoic acid] | < 50 | –
Cc1cc(OCCCc2c(C(=O)N3CCN(c4ccccc4)CC3)[nH]c3ccccc23)cc(C)c1Cl [I-46, (3-(3-(4-chloro-3,5-dimethylphenoxy)propyl)-1H-indol-2-yl)(4-phenylpiperazin-1-yl)methanone] | – | Ki [2]: 1000 to 9990 nM
Cc1cc(OCCCc2c(C(=O)N3CCC[C@H]3C(=O)O)[nH]c3c(-c4c(C)nn(C)c4C)c(Cl)ccc23)cc(C)c1Cl [I-337, (6-chloro-3-(3-(4-chloro-3,5-dimethylphenoxy)propyl)-7-(1,3,5-trimethyl-1H-pyrazol-4-yl)-1H-indole-2-carbonyl)-L-proline] | < 50 | –
Cc1cc(OCCCc2c3n(c4c(-c5c(C)nn(C)c5C)c(Cl)ccc24)[C@H](C)CN(Cc2ccc(C(=O)O)cc2)C3=O)cc(C)c1Cl [I-154, (R)-4-((7-chloro-10-(3-(4-chloro-3,5-dimethylphenoxy)propyl)-4-methyl-1-oxo-6-(1,3,5-trimethyl-1H-pyrazol-4-yl)-3,4-dihydropyrazino[1,2-a]indol-2(1H)-yl)methyl)benzoic acid] | < 50 | –
Cc1cc(OCCCc2c3n(c4c(-c5c(C)nn(C)c5C)c(Cl)ccc24)C(C)[C@@H](C)N(Cc2ccc(C(=O)O)o2)C3=O)cc(C)c1Cl (stereo partly drawn) [I-147, 5-(((3R)-7-chloro-10-(3-(4-chloro-3,5-dimethylphenoxy)propyl)-3,4-dimethyl-1-oxo-6-(1,3,5-trimethyl-1H-pyrazol-4-yl)-3,4-dihydropyrazino[1,2-a]indol-2(1H)-yl)methyl)furan-2-carboxylic acid] | < 50 | –
Cc1cc(OCCCc2c(C(=O)NCc3cc(C(=O)O)c(C)o3)[nH]c3c(-c4c(C)nn(C)c4C)cccc23)cc(C)c1Cl [I-273, 5-((3-(3-(4-chloro-3,5-dimethylphenoxy)propyl)-7-(1,3,5-trimethyl-1H-pyrazol-4-yl)-1H-indole-2-carboxamido)methyl)-2-methylfuran-3-carboxylic acid] | < 50 | –
Cc1cc(OCCCc2c(C(=O)Nc3cncc(C(=O)O)c3)[nH]c3c(-c4c(C)nn(C)c4C)cccc23)cc(C)c1Cl [I-186, 5-(3-(3-(4-chloro-3,5-dimethylphenoxy)propyl)-7-(1,3,5-trimethyl-1H-pyrazol-4-yl)-1H-indole-2-carboxamido)nicotinic acid] | < 50 | –
Cc1cc(OCCCc2c3n(c4c(-c5c(C)nn(C)c5C)cc(Cl)cc24)CCCN(c2cc(C(=O)O)c4ccn(C)c4c2)C3=O)cc(C)c1Cl [I-244, 6-(9-chloro-11-(3-(4-chloro-3,5-dimethylphenoxy)propyl)-1-oxo-7-(1,3,5-trimethyl-1H-pyrazol-4-yl)-4,5-dihydro-1H-[1,4]diazepino[1,2-a]indol-2(3H)-yl)-1-methyl-1H-indole-4-carboxylic acid] | – | Ki: 101 to 299 nM
Cc1cc(OCCCc2c3n(c4c(-c5c(C)nn(C)c5C)c(Cl)ccc24)C(C)CN(Cc2ccc(C(=O)O)cc2)C3=O)cc(C)c1Cl (stereo not shown) [I-130, 4-((7-chloro-10-(3-(4-chloro-3,5-dimethylphenoxy)propyl)-4-methyl-1-oxo-6-(1,3,5-trimethyl-1H-pyrazol-4-yl)-3,4-dihydropyrazino[1,2-a]indol-2(1H)-yl)methyl)benzoic acid] | < 50 | –
Cc1cc(OCCCc2c(C(=O)N3CCN(c4ccc(C(=O)O)cc4)CC3)n(Cc3ccccc3)c3c(-c4c(C)nn(C)c4C)c(Cl)ccc23)cc(C)c1Cl [I-342, 4-(4-(1-benzyl-6-chloro-3-(3-(4-chloro-3,5-dimethylphenoxy)propyl)-7-(1,3,5-trimethyl-1H-pyrazol-4-yl)-1H-indole-2-carbonyl)piperazin-1-yl)benzoic acid] | 51 to 100 | –
Cc1cc(OCCCc2c(C(=O)N[C@@H]3CCCN(C(=O)C(=O)O)C3)[nH]c3c(-c4c(C)nn(C)c4C)c(Cl)ccc23)cc(C)c1Cl [I-327, (R)-2-(3-(6-chloro-3-(3-(4-chloro-3,5-dimethylphenoxy)propyl)-7-(1,3,5-trimethyl-1H-pyrazol-4-yl)-1H-indole-2-carboxamido)piperidin-1-yl)-2-oxoacetic acid] | < 50 | –
Cc1cc(OCCCc2c3n(c4c(-c5c(C)nn(C)c5C)cccc24)CCCN(Cc2ccc(-c4nnn[nH]4)cc2)C3=O)cc(C)c1Cl [I-88, 2-(4-(1H-tetrazol-5-yl)benzyl)-11-(3-(4-chloro-3,5-dimethylphenoxy)propyl)-7-(1,3,5-trimethyl-1H-pyrazol-4-yl)-2,3,4,5-tetrahydro-1H-[1,4]diazepino[1,2-a]indol-1-one] | < 50 | –
Cc1cc(OCCCc2c3n(c4c(-c5c(C)nn(C)c5C)c(Cl)ccc24)CCCN(c2cc(CO)cc(C(=O)O)c2)C3=O)cc(C)c1Cl [I-224, 3-(8-chloro-11-(3-(4-chloro-3,5-dimethylphenoxy)propyl)-1-oxo-7-(1,3,5-trimethyl-1H-pyrazol-4-yl)-4,5-dihydro-1H-[1,4]diazepino[1,2-a]indol-2(3H)-yl)-5-(hydroxymethyl)benzoic acid] | < 50 | –
Cc1cc(OCCCc2c(C(=O)N3CCC(N4CCOCC4)CC3)[nH]c3ccccc23)cc(C)c1Cl [I-47, (3-(3-(4-chloro-3,5-dimethylphenoxy)propyl)-1H-indol-2-yl)(4-morpholinopiperidin-1-yl)methanone] | – | Ki [2]: 10000 to 50000 nM
Cc1cc(OCCCc2c3n(c4c(-c5c(C)nn(C)c5C)c(Cl)ccc24)[C@H](C)CN(c2cccc(C(=O)O)c2)C3=O)cc(C)c1Cl [I-171, (R)-3-(7-chloro-10-(3-(4-chloro-3,5-dimethylphenoxy)propyl)-4-methyl-1-oxo-6-(1,3,5-trimethyl-1H-pyrazol-4-yl)-3,4-dihydropyrazino[1,2-a]indol-2(1H)-yl)benzoic acid] | < 50 | –
Cc1cc(OCCCc2c(C(=O)N(Cc3ccc(C(F)(F)F)cc3)c3ccc(S(N)(=O)=O)cn3)[nH]c3ccccc23)cc(C)c1Cl [I-49, 3-(3-(4-chloro-3,5-dimethylphenoxy)propyl)-N-(5-sulfamoylpyridin-2-yl)-N-(4-(trifluoromethyl)benzyl)-1H-indole-2-carboxamide] | 101 to 299 | –
Cc1cc(OCCCc2c(C(=O)N3CCN(c4ccc(C(=O)O)cc4)CC3)n(Cc3cccnc3)c3c(-c4c(C)nn(C)c4C)c(Cl)ccc23)cc(C)c1Cl [I-338, 4-(4-(6-chloro-3-(3-(4-chloro-3,5-dimethylphenoxy)propyl)-1-(pyridin-3-ylmethyl)-7-(1,3,5-trimethyl-1H-pyrazol-4-yl)-1H-indole-2-carbonyl)piperazin-1-yl)benzoic acid] | < 50 | –
Cc1cc(OCCCc2c3n(c4c(-c5c(C)nn(C)c5C)c(Cl)ccc24)CCCN(c2cc(C(=O)O)c4cc[nH]c4c2)C3=O)cc(C)c1Cl [I-253, 6-(8-chloro-11-(3-(4-chloro-3,5-dimethylphenoxy)propyl)-1-oxo-7-(1,3,5-trimethyl-1H-pyrazol-4-yl)-4,5-dihydro-1H-[1,4]diazepino[1,2-a]indol-2(3H)-yl)-1H-indole-4-carboxylic acid] | < 50 | –
